Reference: patent publication US11401278B2, “Macrocyclic indole derivatives” (The Broad Institute, Inc., priority 2017, dated 2022)
Structures can show the parent of a compound that is named as a salt.

biological target: MCL-1 (Homo sapiens (Human), UniProt Q07820, K194A/K197A/R201A); assay: Protein-compound interaction assay (SPR assay, Assay 8); format: binding; conditions: immobilized MBP-MCL-1, 25° C., geometric mean
Description: Assay 8 Protein-Compound Interaction Assay (SPR Assay)
The ability of the compounds described in this invention to bind to MCL-1 may be determined using surface plasmon resonance (SPR). This allows for the quantification of binding in terms of the equilibrium dissociation constant (KD [M]), as well as association and dissociation rate constants (kon [1/M 1/s] and koff [1/s], respectively). The measurements may be performed using Biacore® T200 or Biacore® S200 instruments (GE Healthcare).
For SPR measurements, recombinant MCL-1 (amino acids 173-321, N-terminal fused to Maltose Binding Protein (MBP) (SEQ ID 1) purchased from Beryllium (Bedford, Mass., USA)) was immobilized using standard amine coupling (Johnsson B et al, Anal Biochem. 1991 Nov. 1; 198(2):268-77). Briefly, carboxymethylated dextran biosensor chips (Series S Sensor Chip CMS, GE Healthcare) were activated with 1-ethyl-3-(3-dimethylaminopropyl)-carbodiimide hydrochloride (EDC) and N-hydroxysuccinimide (NHS) according to the supplier's instructions. MBP-MCL-1 was diluted in 1×PBS-P+ (GE Healthcare) and injected on the activated chip surface. Subsequently, a solution of 1 M ethanolamine-HCl (GE Healthcare) was injected to block unreacted groups, resulting in approximately 400-2500 response units (RU) of immobilized protein. A reference surface was generated by treatment with NHS-EDC and ethanolamine-HCl. Compounds were dissolved in 100% dimethylsulfoxide (DMSO) to a concentration of 10 mM and subsequently diluted in running buffer (1×PBS-P+ (GE Healthcare) [generated from PBS-P+ Buffer 10× (GE Healthcare): 0.2 M phosphate buffer with 27 mM KCl, 1.37 M NaCl and 0.5% Surfactant P20 (Tween 20).], 1% v/v DMSO). For SPR binding-measurements, serial dilutions of compound (eight dilution steps, typically ranging from 0.2 nM up to 1 μM) were injected over immobilized protein. […] Compounds were injected for 60 s followed by a dissociation time of up to 1000 s.
The double-referenced sensorgrams were fit to a simple reversible Langmuir 1:1 reaction mechanism as implemented in the Biacore® T200 and S200 evaluation software (T200 evaluation software version 2.0 and S200 evaluation software version 1.0, GE Healthcare).

MCL-1, sequence (Q07820 whole entry K194A/K197A/R201A, looked up): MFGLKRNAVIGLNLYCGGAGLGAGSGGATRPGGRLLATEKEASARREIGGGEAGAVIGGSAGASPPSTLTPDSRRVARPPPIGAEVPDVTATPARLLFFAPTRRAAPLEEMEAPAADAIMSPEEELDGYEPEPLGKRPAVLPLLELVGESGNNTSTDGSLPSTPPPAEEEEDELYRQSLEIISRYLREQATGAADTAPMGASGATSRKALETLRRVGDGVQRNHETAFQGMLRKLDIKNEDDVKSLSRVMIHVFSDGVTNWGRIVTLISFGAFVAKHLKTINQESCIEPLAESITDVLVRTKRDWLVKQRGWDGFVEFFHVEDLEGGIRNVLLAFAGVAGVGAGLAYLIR

SMILES | Kd [nM] | koff [s⁻¹] | kon [M⁻¹ s⁻¹]
CCNCC.CCc1c2c(nn1C)C(CCN1CCOCC1)N(C)S(=O)(=O)CCCn1c(C(=O)O)c(CCCOc3cccc4cc(F)ccc34)c3ccc(Cl)c-2c31 (single isomer, unassigned; enantiomer 2) [Example 76, 4-chloro-3-ethyl-7-{3-[(6-fluoronaphthalen-1-yl)oxy]propyl}-2,14-dimethyl-15-[2-(morpholin-4-yl)ethyl]-13,13-dioxo-10,11,12,13,14,15-hexahydro-2H-13lambda^6-pyrazolo[3′,4′:4,5][1,2,8]thiadiazacycloundecino[6,7,8-hi]indole-8-carboxylic acid-N-ethylethanamine Salt (Enantiomer 2)] | 0.34 | 0.0025 | 7.3e+06

biological target: MCL1 protein (Homo sapiens (Human), UniProt Q07820); assay: PIxEL: protein-protein interaction in permeabilized cells by ELISA (Assay 5); format: cell-based; conditions: permeabilized RKO cells, Biotin-BIM peptide 0.2 μM, serum free; median
Sequence (Q07820 whole entry): as the sequence (Q07820 whole entry K194A/K197A/R201A, looked up) above, with A194K, A197K, A201R counted along it
Protocol: PI×EL: Protein-Protein Interaction in Permeabilized Cells by ELISA
Most MCL1 protein molecules are localized at the mitochondria outer membrane and sequester pro-apoptotic proteins through binding of their BCL2 homology domain 3 (BH3 domain). MEB buffer (150 mM mannitol, 10 mM HEPES pH 7.5, 50 mM KCl, 20 μM EDTA, 20 μM EGTA, 5 mM potassium succinate, 0.1% protease-free BSA (SIGMA) with low dose digitonin (0.002%) permeabilizes plasma membrane while leaves live mitochondria, where MCL1 maintains its native localization and conformation. Unlike biophysical assays (e.g. TR-FRET) that use truncated recombinant MCL1 protein, this assay uses full length endogenous MCL1 protein at mitochondria outer membrane. It measures the interaction between MCL1 protein and biotinylated BIM BH3 peptide. Compounds can compete with BIM BH3 peptide to bind to MCL1 protein. This serum free assay measures the affinity between MCL1 protein and compound in permeabilized cells, therefore it is not affected by serum binding and cell permeability, and can measure the intrinsic compound affinity.
On day 1, RKO colon cancer cell line cells were plated at 0.8 million cells/ml, 100 μl/well in 96-well flat bottom TC plates (Corning). MCL1 antibody (Santa Cruz sc-12756) were diluted at 200 fold (final concentration 1 μg/ml) in carbonate buffer (Thermo Fisher Scientific, pH 9.6), and 50 μl of diluted antibody was added to each well of high bind ELISA plates (SARSTEDT). Each plate was tapped to make sure liquid covering entire bottom of wells and incubate at 37° C. overnight.
On the second day, MCL1 antibody was washed from ELISA plate. 250 μl Odyssey® Blocking Buffer (PBS) (Li-Cor) was added to each well, incubated at room temperature for at least 1 hour, then washed once with 250 μl 1×PBST. Plates with RKO cells were gently washed once with 100 μl/well PBS, once with 100 μl/well MEB buffer without digitonin, then 100 μl of MEB buffer with 0.002% digitonin was gently added to each well. Compounds were added with HP Tecan compound dispenser in 3-fold dilution series, highest dose 30 μM, 10-dose per compound in quadruplicates. Biotin-BIM peptide (synthesized by 21st Century) was added with HP Tecan compound dispenser at 0.2 μM immediately after the addition of compounds. Plates were rocked for 1 hour at room temperature. Then MEB buffer was aspirated and 50 μl of CHAPS buffer (50 mM Tris-Cl, pH 7.4, 150 mM NaCl, 1% CHAPS, 1 mM EDTA, 1 mM EGTA, cOmplete protease inhibitors (Roche), PhosSTOP (Roche)) was added to each well. Plates were rocked for 1 hour at 4° C., then 45 μl cell lysate from each well were transferred to ELISA plates coated with MCL1 antibody. Plates were incubated overnight in the cold room with rocking.
On the third day, ELISA plates were washed once with 250 μl 1×PBST. Streptavidin-poly-HRP (Thermo Fisher Scientific) was diluted to 20 ng/ml in Odyssey blocking buffer plus 0.05% Triton-100, and 100 μl was added to each well of the ELISA plate. Plates were incubated at room temperature for 1 hour with rocking, then washed with 100 μL 1×PBST for 3 times. Each SuperSignal ELISA Femto Maximum Sensitivity substrate was added to a 50-ml tube and mixed, then 100 μl of mixed substrate was added to each well. Plates were shaken for 1 minute then luminescence was measured by Envision plate reader […]. Signal of each well were normalized by no-compound control and no-cell control. IC50 was calculated using Graphic Pad PRISM software.

IC50 [nM] | SMILES
145 | CCc1c2c(nn1C)CN(CC)S(=O)(=O)CCCn1c(C(=O)O)c(CCCOc3cccc4cc(F)ccc34)c3ccc(Cl)c-2c31 (racemic) [Example 56, (rac)-4-chloro-3,14-diethyl-7-{3-[(6-fluoro-1-naphthyl)oxy]propyl}-2-methyl-11,12,14,15-tetrahydro-2H,10H-pyrazolo[3′,4′:4,5][1,2,8]thiadiazacycloundecino[6,7,8-hi]indole-8-carboxylic acid 13,13-dioxide]
360 | CCc1c2c(nn1C)CN(C1CC1)S(=O)(=O)CCCn1c(C(=O)O)c(CCCOc3cccc4cc(F)ccc34)c3ccc(Cl)c-2c31 (single isomer, unassigned; enantiomer 1) [Example 54, (−)-4-chloro-14-cyclopropyl-3-ethyl-7-{3-[(6-fluoronaphthalen-1-yl)oxy]propyl}-2-methyl-13,13-dioxo-10,11,12,13,14,15-hexahydro-2H-13lambda^6-pyrazolo[3′,4′:4,5][1,2,8]thiadiazacycloundecino[6,7,8-hi]indole-8-carboxylic acid N-ethylethanamine Salt (Enantiomer 1)]
329 | CCc1c2c(nn1C)CN(C1CC1)S(=O)(=O)CCCn1c(C(=O)O)c(CCCOc3cccc4cc(F)ccc34)c3ccc(Cl)c-2c31 (racemic) [Example 53, (rac)-4-chloro-14-cyclopropyl-3-ethyl-7-{3-[(6-fluoro-1-naphthyl)oxy]propyl}-2-methyl-11,12,14,15-tetrahydro-2H,10H-pyrazolo[3′,4′:4,5][1,2,8]thiadiazacycloundecino[6,7,8-hi]indole-8-carboxylic acid 13,13-dioxide]
458 | Cc1c2c(nn1C)CNS(=O)(=O)CCCn1c(C(=O)O)c(CCCOc3cccc4cc(F)ccc34)c3ccc(Cl)c-2c31 (single isomer, unassigned; enantiomer 1) [Example 51, 4-chloro-7-{3-[(6-fluoronaphthalen-1-yl)oxy]propyl}-2,3-dimethyl-13,13-dioxo-10,11,12,13,14,15-hexahydro-2H-13lambda^6-pyrazolo[3′,4′:4,5][1,2,8]thiadiazacycloundecino[6,7,8-hi]indole-8-carboxylic acid (Enantiomer 1)]
74.8 | CCc1c2c(nn1C)CN(CC)S(=O)(=O)CCCn1c(C(=O)O)c(CCCOc3cccc4cc(F)ccc34)c3ccc(Cl)c-2c31 (single isomer, unassigned; enantiomer 1) [Example 57, (+)-4-chloro-3,14-diethyl-7-{3-[(6-fluoronaphthalen-1-yl)oxy]propyl}-2-methyl-13,13-dioxo-10,11,12,13,14,15-hexahydro-2H-13lambda^6-pyrazolo[3′,4′:4,5][1,2,8]thiadiazacycloundecino[6,7,8-hi]indole-8-carboxylic acid N-ethylethanamine Salt (Enantiomer 1)]
8.74 | Cc1c2c(nn1C)C(CCN1CCOCC1)N(C)S(=O)(=O)CCCn1c(C(=O)O)c(CCCOc3cccc4cc(F)ccc34)c3ccc(Cl)c-2c31 (single isomer, unassigned; enantiomer 2) [Example 67, 4-chloro-7-{3-[(6-fluoronaphthalen-1-yl)oxy]propyl}-2,3,14-trimethyl-15-[2-(morpholin-4-yl)ethyl]-13,13-dioxo-10,11,12,13,14,15-hexahydro-2H-13lambda^6-pyrazolo[3′,4′:4,5][1,2,8]thiadiazacycloundecino[6,7,8-hi]indole-8-carboxylic acid (Enantiomer 2)]
29.9 | Cc1c2c(nn1C)C(CCN1CCOCC1)N(C)S(=O)(=O)CCCn1c(C(=O)O)c(CCCOc3cccc4cc(F)ccc34)c3ccc(Cl)c-2c31 (racemic) [Example 48, (rac)-4-chloro-7-{3-[(6-fluoro-1-naphthyl)oxy]propyl}-2,3,14-trimethyl-15-(rac)-[2-(morpholin-4-yl)ethyl]-11,12,14,15-tetrahydro-2H,10H-pyrazolo[3′,4′:4,5][1,2,8]thiadiazacycloundecino[6,7,8-hi]indole-8-carboxylic acid 13,13-dioxide (Mixture of Stereoisomers)]

SMILES | IC50 [nM]
CCc1c2c(nn1C)C(CCN1CCOCC1)N(C)S(=O)(=O)CCCn1c(C(=O)O)c(CCCOc3cccc4cc(F)ccc34)c3ccc(Cl)c-2c31 (racemic) [Example 73, (rac)-(4-chloro-3-ethyl-7-{3-[(6-fluoronaphthalen-1-yl)oxy]propyl}-2,14-dimethyl-15-[2-(morpholin-4-yl)ethyl]-13,13-dioxo-10,11,12,13,14,15-hexahydro-2H-13lambda^6-pyrazolo[3′,4′:4,5][1,2,8]thiadiazacycloundecino[6,7,8-hi]indole-8-carboxylic acid (Racemate 1)] | 33.1
Cc1c2c(nn1C)CN(C1CC1)S(=O)(=O)CCCn1c(C(=O)O)c(CCCOc3cccc4ccccc34)c3ccc(Cl)c-2c31 [Example 40, (rac)-4-chloro-14-cyclopropyl-2,3-dimethyl-7-[3-(1-naphthyloxy)propyl]-11,12,14,15-tetrahydro-2H,10H-pyrazolo[3′,4′:4,5][1,2,8]thiadiazacycloundecino[6,7,8-hi]indole-8-carboxylic acid 13,13-dioxide] | 29400
